According to ChEMBL document CHEMBL1126676, “On the prediction of binding properties of drug molecules by comparative molecular field analysis” (1993):

biological target: T1, Thermolysin (Bacillus thermoproteolyticus) (UniProt P00800); assay: Binding constant against thermolysin expressed as negative logarithm
T1 sequence (whole entry): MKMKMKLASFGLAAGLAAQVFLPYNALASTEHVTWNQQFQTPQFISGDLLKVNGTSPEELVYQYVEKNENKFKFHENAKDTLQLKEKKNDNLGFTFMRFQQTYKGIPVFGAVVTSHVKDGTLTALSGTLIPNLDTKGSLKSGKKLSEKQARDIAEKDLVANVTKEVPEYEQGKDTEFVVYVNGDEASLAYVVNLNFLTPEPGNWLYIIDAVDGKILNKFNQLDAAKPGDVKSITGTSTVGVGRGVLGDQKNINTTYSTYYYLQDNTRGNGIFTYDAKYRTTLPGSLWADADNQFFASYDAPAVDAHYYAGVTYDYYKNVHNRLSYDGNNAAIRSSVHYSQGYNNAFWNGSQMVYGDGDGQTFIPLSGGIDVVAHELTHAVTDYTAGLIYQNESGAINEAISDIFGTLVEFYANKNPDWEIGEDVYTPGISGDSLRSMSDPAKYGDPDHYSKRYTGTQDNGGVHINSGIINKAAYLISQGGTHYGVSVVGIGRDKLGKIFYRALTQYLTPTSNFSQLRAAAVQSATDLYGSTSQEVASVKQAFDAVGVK

-ln K	SMILES
15	CC(C)CC(CP(=O)(O)CNC(=O)OCc1ccccc1)C(=O)NCC(=O)O (stereo unspecified)
14.7	CC(NC(=O)C(Cc1ccccc1)C(=O)NO)C(=O)NCCO (stereo unspecified)
17.8	CC(C)CC(CP(=O)(O)CNC(=O)OCc1ccccc1)C(=O)NC(C)C(=O)O (stereo unspecified)
9.85	CC(C)CC(OP(=O)(O)CNC(=O)OCc1ccccc1)C(=O)NC(Cc1ccccc1)C(=O)O (stereo unspecified)
11.2	CC(C)CC(OP(=O)(O)CNC(=O)OCc1ccccc1)C(=O)NC(C)C(=O)O (stereo unspecified)
8.38	CC(C)CC(OP(=O)(O)CNC(=O)OCc1ccccc1)C(=O)NCC(=O)O (stereo unspecified)
8.57	CC(C)CC(N)C(=O)NO (stereo unspecified)
11.6	CC(C)CC(NC(=O)C(CC(C)C)OP(=O)(O)CNC(=O)OCc1ccccc1)C(=O)O (stereo unspecified)

tested on: not listed separately; assay: Negative logarithm of minimal inhibitory concentration against human rhinovirus 14; assay type: functional

-ln (MIC)	SMILES
14.7	Cc1cc(CCCCCCCOc2ccc(C3=N[C@H](C)CO3)cc2)on1
12.9	Cc1cc(CCCCCOc2ccc(C3=NCCO3)cc2Cl)on1
14.5	Cc1cc(CCCCCOc2ccc(C3=NCCO3)cc2)on1
15.4	Cc1cc(CCCCCCCOc2ccc(C3=N[C@@H](C)CO3)cc2Cl)on1
14.3	Cc1cc(CCCCCOc2ccc(C3=N[C@@H](C)CO3)cc2)on1
17.7	CC[C@H]1COC(c2ccc(OCCCCCCCc3cc(C)no3)cc2)=N1
17.3	Cc1cc(CCCCCCCOc2ccc(C3=N[C@@H](C)CO3)cc2)on1
14.3	Cc1cc(CCCCCCCOc2ccc(C3=NCCO3)cc2)on1 [DISOXARIL]
